This passage reports melting point results from a melting point compilation (Tetko et al.).

The term melting point denotes the temperature, or range, at which the solid turns liquid.

For `CC1CCC(C(C)C)C(OC(=O)C#Cc2ccccc2)C1` (centres undefined), the melting point is 64 °C.

In turn, `OCC1CCN(c2ncnc3ccsc23)CC1` came in with a melting point of 126 to 128 °C.

As to `Oc1ccc(O)c(Br)c1`, the melting point worked out at 112 °C.

`Cc1ccc2c(c1)C(=O)CC2` had a melting point of 58 °C.

`CC(C)(C)N(NC(=O)c1ccccc1)C(=O)c1ccc(C#N)cc1` registered a melting point of 200 °C.

On to `O=C(C=Cc1ccc(OC(=O)c2ccco2)cc1)c1ccccc1`, for which the melting point is 115 °C.

Compound `O=C(C1=NOC2C(=O)N(c3ccc(Cl)cc3)C(=O)C12)c1ccco1` (centres undefined) had a melting point of 171 °C.

In the case of `CCCCCCc1ccccc1`, the melting point is -61 °C.

Consider `CCOC(=O)c1[nH]c(C)c(C=O)c1C`, for which the melting point is 145 to 146 °C.

For `CC(=O)CC(=O)O`, the melting point was found to be 36.5 °C.

Take `Cc1ccc(-c2cccc(-c3ccc(C)cc3)n2)cc1`: the melting point was found to be 165 °C.

`O=C(O)c1cc(Br)c(Br)o1` returned a melting point of 171 °C.

`CC(C)(C)c1cc(O)c(O)c(O)c1` returned a melting point of 135 °C.

In turn, `CCN(CC)c1ccc2cc(C(=O)c3cc4ccc(N(CC)CC)cc4oc3=O)c(=O)oc2c1` registered a melting point of 214 °C.

The compound `c1ccc(CCCCc2ccccc2)cc1` registered a melting point of 52.5 °C.

Consider `CCC(c1ccc(O)c(C)c1)C(CC)c1ccc(O)c(C)c1` (centres undefined), for which the melting point amounted to 145 °C.

Take `Cc1nc2scc(-c3ccccc3)c2c(=O)n1NC(=O)c1ccccc1Cl`: the melting point was in the range of 209 to 210 °C.

In turn, `CC(=O)OC1CC2C(C)C(=O)C3(C(OC(C)=O)CC4C5(C)CCCC4(C(OC(C)=O)OC5)C13)C2OC(C)=O` (centres undefined) returned a melting point of 104 °C.

Take `COc1cccc(C=C(C)[N+](=O)[O-])c1`: the melting point lay in the range of 45 to 47 °C.

`CCOC(O)C(Cl)(Cl)Cl` (centres undefined) returned a melting point of 56.5 °C.

In turn, `Cc1ccc2cc[nH]c2c1` yielded a melting point of 31 °C.

Regarding `Nc1ccc(C(=O)c2ccccc2)cc1N`, the melting point is 117 °C.

`O=C(O)C[C@H](C(=O)O)c1ccccc1`: the melting point was in the range of 173 to 176 °C.

Compound `CCCCC(CC)CC` showed a melting point of -115 °C.

`CC(C)C(=O)C(=O)O`: the melting point was found to be 31.5 °C.

For `COc1ccc2cc(-c3ccn[nH]3)ccc2c1`, the melting point is 201 °C.

As to `CC(=Nc1ccc(N=Nc2ccccc2)cc1)c1c(O)c2ccccc2n(-c2ccccc2)c1=O`, the melting point was 191 °C.

`CC(C)(C=NO)NO` showed a melting point of 98 to 100 °C.

Consider `CSc1nc(C=O)ccc1C#N`, for which the melting point turned out to be 140 °C.

As to `Nc1snnc1-c1ccccc1`, the melting point is 144 to 147 °C.

`N#Cc1ccc2c(c1)[N+]([O-])=C(c1ccc(C3=[N+]([O-])c4cc(C#N)ccc4C3=O)cc1)C2=O` came in with a melting point of 360 °C.

`Cc1ccc2c(c1)C(c1ccccc1)C(c1ccccc1)N2` (centres undefined): the melting point was 155 °C.

As for `Cc1cc(Br)c(N)c([N+](=O)[O-])c1`, the melting point fell in the range of 58 to 59 °C.

In the case of `Cc1cc(Cl)nnc1Cl`, the melting point came to 87 °C.

Consider `COc1ccc(C=Nn2c(S)nnc2CCn2c(C)nc3ccccc32)cc1`, for which the melting point is 262 °C.

In turn, `CC(C)Oc1ccc2c(=O)c(-c3ccccc3)coc2c1` had a melting point of 115 °C.

`COP(=S)(OC)Oc1ccc([N+](=O)[O-])c(C)c1` had a melting point of 3.4 °C.

In turn, `CC(C)(C)c1ccccc1N` registered a melting point of -60 °C.

Regarding `O=C1NC(=O)C(c2ccccc2)(c2ccccc2)N1`, the melting point came out at 295 °C.

The compound `O=[N+]([O-])c1cc(F)cc(F)c1` returned a melting point of 17 °C.

Consider `O=C(O)c1cccc(-n2cccc2)c1`, for which the melting point lay within 180 to 181 °C.

With `CCc1ccsc1`, the melting point was -89.1 °C.

For `C=C(C)CO`, the melting point is -50 °C.

Consider `O=C1C(=O)C(Cl)=C(Cl)C(Cl)=C1Cl`, for which the melting point is 125 to 129 °C.
